Results: patent US20060252679A1, “Preventive and/or trerapeutic drgs for itch” (priority 2002, published 2006)

Legend:
[1] = target: T1, GPR4 (Homo sapiens, UniProt P46093); experiment: Antagonistic action on GPR4 (luciferase reporter in GPR4 assay cells); format: cell-based; conditions: 17β-estradiol 10 nmol/L, 6 hours, luciferase luminescence
T1 construct: expressed in transfected cells; host or cells: KJMGER8 (Namalwa KJM-1 human B-cell line stably expressing Gal4-ER), stably co-transfected with pAGal9-GPR4 and the CRE-luciferase reporter pACREpluc
Experimental: Cells for GPR4 assay prepared in Referential Example 5 (said assay cells express GPR4 by stimulation with 17β-estradiol) were seeded on white plates at the rate of 10^5 cells/well, and a solution where 17β-estradiol (manufactured by Sigma) was diluted with a medium so as to make 10 nmol/L in the reaction solution and test compounds were added to the plate and the mixture was incubated at 37° C. for 6 hours in a 5% CO2 incubator. After that, a Steady Glo Luciferase Assay System (manufactured by Promega) solution was added to stop the reaction and the amount of luminescence during one second was measured using a Top Count (Packard, Meriden, Conn., U.S.A.).
Activity of the each of test compounds (antagonistic action) was expressed by an inhibition rate calculated on the basis of counts per second in the presence or absence of 17β-estradiol as shown by the following formula. IC50 value was calculated from the inhibition rate by a linear approximate analysis of the Logit-Log conversion method.
In the formula, A, B and C each have the following meaning, respectively.
A: counts per second when 17β-estradiol and the test compound were added
B: counts per second when neither 17β-estradiol nor the test compound was added
C: counts per second when only 17β-estradiol was added Inhibition Rate (%)=[1−{(A−B)/(C−B)}]×100
2 μl of plasmid pAGal9-GPR4 with inducible expression of GPR4 and 2 μl of reporter plasmid pACREpluc were co-transferred into 6×10^6 cell of KJMGER8 by the above-mentioned electroporation. The transformants were suspended in 8 ml of an RPMI 1640-ITPSG medium and cultured in a CO2 incubator at 37° C. for 24 hours. After the cultivation, blasticidin S ([…]), hygromycin B (300 μg/ml) and geneticin ([…]) were added and cultivation was carried out for 14 days more, and stable transformants (called GPR4 assay cells) were obtained. The transformants were subcultured in an RPMI 1640-ITPSG medium containing blasticidin S (2.0 μg/ml), hygromycin B (300 μg/ml) and geneticin ([…]).

[2] = system: Itching Induced by SPC; experiment: Suppressive effect on itching induced by SPC (scratching behavior in mice); format: in vivo, ddY male mice; conditions: 300 mg/kg orally one hour before SPC (50 μg/site s.c.), counted for 60 minutes, ten mice per group
Experimental: SPC (50 μg/site) was subcutaneously administered (an SPC-administered group) to the rostal back of ddY male mice (3 to 4 weeks age), the mice were placed in a cage made of acrylic for the observation (7.5×7.5×15 cm) and behavior of the mice was taken by a video camera for 60 minutes in the absence of observing persons. The video camera was subjected to a playback and numbers of scratching behavior by hind limb were counted by visual observation. In a negative control group (a group to which a physiological saline was administered), a physiological saline (0.1 mL/site) was administered instead of SPC. In the compound-administered group, each compound 1 and compound 3 (300 mg/kg) was suspended in a 0.5 w/v % aqueous solution of methyl cellulose (MC) and orally administered at one hour before administration of SPC. In each of the SPC-administered group and the physiological saline-administered group, a 0.5 w/v % aqueous solution of MC (10 mL/kg) was orally administered at one hour before administration of SPC and physiological saline, respectively. The test was conducted for ten mice per group. Suppressive rate by the compounds for scratching behavior induced by SPC was calculated by the following formula. In the formula, A and B have the following meanings, respectively. […]

[3] = system: Itching Induced by Compound 48/80; experiment: Effect on itching induced by Compound 48/80 (scratching behavior in mice); format: in vivo, ddY strain mice; conditions: 300 mg/kg orally one hour before Compound 48/80 (10 μg/site s.c.); for Numbers of Scratching Behavior (numbers/60 min): ten mice per group; for Suppressive rate(%) of scratching behavior induced by Compound 48/80: versus Compound 48/80-administered group
Experimental: Compound 48/80 (10 μg/site) was subcutaneously administered (a Compound 48/80-administered group) to the rostal back of ddY strain mice (4 weeks age), the mice were placed in a cage made of acrylic for the observation (7.5×7.5×15 cm) and behavior of the mice was taken by a video camera for 60 minutes in the absence of observing persons. The video camera was subjected to a playback and numbers of scratching behavior by hind limb were counted by visual observation. In a negative control group (a group to which a physiological saline was administered), a physiological saline (0.1 mL/site) was administered instead of Compound 48/80. In the compound-administered group, each compound 1 and compound 3 (300 mg/kg) was suspended in a 0.5 w/v % aqueous solution of methyl cellulose (MC) and orally administered at one hour before administration of Compound 48/80. In each of the Compound 48/80-administered group and the physiological saline-administered group, a 0.5 w/v % aqueous solution of MC was orally administered at one hour before administration of Compound 48/80 and physiological saline, respectively. The test was conducted for ten mice per group. Suppressive rate by the compound for scratching behavior induced by Compound 48/80 was calculated by the following formula.
In the formula, C and D have the following meanings.
C: numbers of scratching behavior of the Compound 48/80-administered group
D: numbers of scratching behavior of the compound-administered group Suppressive Rate (%)=[(C−D)/C]×100

[4] = system: Itching in Chronic Dermatitis Model to which Hapten was Repeatedly Applied; experiment: Effect on itching in chronic dermatitis model to which hapten (oxazolone) was repeatedly applied; format: in vivo, BALB/c male mice; conditions: mean ± standard error, control group 264 ± 29
Experimental: Preparation of chronic dermatitis model to which hapten was repeatedly applied was conducted according to the method by Kitagaki, et al. [Journal of Investigative Dermatology, volume 105, pages 749-755 (1995)] with some modifications.
With regard to hapten, oxazolone (manufactured by Sigma-Aldrich) was used and dissolved in acetone (manufactured by Kanto Kagaku) to prepare a 0.5 w/v % solution of oxazolone in acetone (antigen solution). The antigen solution (10 μL) was applied to the rostal back of BALB/c male mice (6 weeks age) with the hair was shaved to sensitize the mice. Starting from 7 days thereafter (day 0), the antigen solution (10 μL) was repeatedly challenged to apply at the same site until day 16 every two or three days to prepare chronic dermatitis models.
Compound 1 was suspended in a 0.5 w/v % aqueous solution of MC in a concentration of 10 and 30 mg/mL, respectively, and orally administered at a dose of 10 mL/kg at 1 hour before application of the antigen solution on the day 16. As a control group, a group to which only 0.5 w/v % aqueous solution of MC was similarly administered per os was prepared. […]
In order to adjust the mice to new environment, they were allowed to place for one hour in a cage (7.5×8×15 cm) made of acrylic for observation. […] The numbers of scraching behavior by hind limb to the applied site and around there were counted.

T1 sequence (P46093 whole entry E215Q, the tested form may be a part): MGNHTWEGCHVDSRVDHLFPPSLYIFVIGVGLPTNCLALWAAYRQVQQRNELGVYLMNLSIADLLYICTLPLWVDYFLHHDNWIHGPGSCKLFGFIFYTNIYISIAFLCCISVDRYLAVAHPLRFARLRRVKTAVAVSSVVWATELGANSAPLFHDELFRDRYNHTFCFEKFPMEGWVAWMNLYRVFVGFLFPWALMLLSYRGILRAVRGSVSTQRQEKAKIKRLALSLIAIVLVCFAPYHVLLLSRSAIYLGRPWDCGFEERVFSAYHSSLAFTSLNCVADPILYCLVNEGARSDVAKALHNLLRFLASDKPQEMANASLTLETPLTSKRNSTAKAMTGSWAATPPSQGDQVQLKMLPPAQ

SMILES | IC50 [1] [nM] | Numbers of scratching behavior of the compound-administered group [2] | Numbers of Scratching Behavior (numbers/60 min) [3] [numbers/60 min] | Suppressive rate(%) of scratching behavior induced by Compound 48/80 [3] [%] | Numbers of Scratching Behavior for 1 Hour after Application of Hapten ([4]; 100 mg/kg orally 1 hour before antigen application on day 16) | Numbers of Scratching Behavior for 1 Hour after Application of Hapten ([4]; 300 mg/kg orally 1 hour before antigen application on day 16)
CCc1nc2c(C)cc(C)nc2n1Cc1ccc2c(c1)CCc1cc(CN3CCN(C)CC3)ccc1N2 [Compound 1, 2-(2-Ethyl-5,7-dimethyl-3H-imidazo[4,5-b]pyridin-3-ylmethyl)-8-(4-methylpiperazin-1-ylmethyl)-10,11-dihydro-5H-dibenz[b,f]azepine] | 4 | 13 | 16 | 54 | 138 ± 33 | 2 ± 1
CCc1nc2c(C)cc(C)nc2n1Cc1ccc2c(c1)CCc1cc(CN3CC=CCC3)ccc1N2 [Compound 2, 2-(2-Ethyl-5,7-dimethyl-3H-imidazo[4,5-b]pyridin-3-ylmethyl)-8-(1,2,5,6-tetrahydropyridin-1-ylmethyl)-10,11-dihydro-5H-dibenz[b,f]azepine] | 3.2 |  |  |  |  | 
CCc1nc2c(C)cc(C)nc2n1Cc1ccc2c(c1)CCc1cc(CN3CC(C)CC(C)C3)ccc1N2 (stereo not shown) [Compound 5] | 14 |  |  |  |  | 

Now from value to molecule, other results behind:

IC50 [1] [nM] | SMILES | Numbers of scratching behavior of the compound-administered group [2] | Numbers of Scratching Behavior (numbers/60 min) [3] [numbers/60 min] | Suppressive rate(%) of scratching behavior induced by Compound 48/80 [3] [%] | Numbers of Scratching Behavior for 1 Hour after Application of Hapten ([4]; 100 mg/kg orally 1 hour before antigen application on day 16) | Numbers of Scratching Behavior for 1 Hour after Application of Hapten ([4]; 300 mg/kg orally 1 hour before antigen application on day 16)
2.3 | CCc1nc2c(C)cc(C)nc2n1Cc1ccc2c(c1)CCc1cc(CN3CCCC3)ccc1N2 [Compound 3, 2-(2-Ethyl-5,7-dimethyl-3H-imidazo[4,5-b]pyridin-3-ylmethyl)-8-(pyrrolidin-1-ylmethyl)-10,11-dihydro-5H-dibenz[b,f]azepine] | 18 | 26 | 52 |  | 
5.8 | CCc1nc2c(C)cc(C)nc2n1Cc1ccc2c(c1)CCc1cc(CN3CCOCC3)ccc1N2 [Compound 4, 2-(2-Ethyl-5,7-dimethyl-3H-imidazo[4,5-b]pyridin-3-ylmethyl)-8-morpholinomethyl-10,11-dihydro-5H-dibenz[b,f]azepine] |  |  |  |  | 
